Consider 1 compound from PMC5218480 (PLoS ONE, 2017).

For this assay, the system named is MV-4-11 cells. The experiment in a line: Gene expression microarray analysis (Affymetrix PrimeView) and GSEA. It counts as cell-based, human. More on the design: RFU PODN (11730768_x_at) / Fold change /veh PODN (11730768_x_at) / RFU LINC00158 (11744669_a_at) / Fold change /veh LINC00158 (11744669_a_at) / RFU DUSP10 (11751237_a_at) / Fold change /veh DUSP10 (11751237_a_at) / RFU ID3 (11757404_x_at) / Fold change /veh ID3 (11757404_x_at) / RFU PLEKHG5 (11737974_s_at) / Fold change /veh PLEKHG5 (11737974_s_at) / RFU LRRC4B (11730491_at) / Fold change /veh LRRC4B (11730491_at) / RFU GIMAP4 (11747438_a_at) / Fold change /veh GIMAP4 (11747438_a_at) / RFU KRT8 (11758183_x_at) / Fold change /veh KRT8 (11758183_x_at) / RFU CNN1 (11734310_a_at) / Fold change /veh CNN1 (11734310_a_at) / RFU VPS37D (11726825_at) / Fold change /veh VPS37D (11726825_at) / RFU C10orf10 (11716522_x_at) / Fold change /veh C10orf10 (11716522_x_at) / RFU KIR2DL2 /// KIR2DL4 /// KIR2DL5A /// KIR2DL5B /// KIR2DS1 /// KIR2DS2 /// KIR2DS3 /// KIR2DS4 /// KIR3DL3 /// KIR3DL3 /// KIR3DS1 (11738374_at) / Fold change /veh KIR2DL2 /// KIR2DL4 /// KIR2DL5A /// KIR2DL5B /// KIR2DS1 /// KIR2DS2 /// KIR2DS3 /// KIR2DS4 /// KIR3DL3 /// KIR3DL3 /// KIR3DS1 (11738374_at) / RFU C1QL1 (11718748_at) / Fold change /veh C1QL1 (11718748_at) / RFU TMPRSS4 (11747572_a_at) / Fold change /veh TMPRSS4 (11747572_a_at) / RFU HAMP (11756126_x_at) / Fold change /veh HAMP (11756126_x_at) / RFU RNFT2 (11725882_a_at) / Fold change /veh RNFT2 (11725882_a_at) / RFU NR4A2 (11747474_a_at) / Fold change /veh NR4A2 (11747474_a_at) / RFU ABCC12 (11746883_a_at) / Fold change /veh ABCC12 (11746883_a_at) / RFU TMEM136 (11760407_x_at) / Fold change /veh TMEM136 (11760407_x_at) / RFU CLDN22 /// WWC2 (11732394_at) / Fold change /veh CLDN22 /// WWC2 (11732394_at) / RFU HLA-DPB1 (11760878_x_at) / Fold change /veh HLA-DPB1 (11760878_x_at) / RFU SPINT1 (11716480_a_at) / Fold change /veh SPINT1 (11716480_a_at) / RFU GAP43 (11754022_s_at) / Fold change /veh GAP43 (11754022_s_at) / RFU A4GNT (11735810_at) / Fold change /veh A4GNT (11735810_at) / RFU PRB3 (11715151_x_at) / Fold change /veh PRB3 (11715151_x_at) / RFU TUBB4B (11761932_at) / Fold change /veh TUBB4B (11761932_at) / RFU CAPN14 (11732068_a_at) / Fold change /veh CAPN14 (11732068_a_at) / RFU TMCC2 (11721928_a_at) / Fold change /veh TMCC2 (11721928_a_at) / RFU IRGQ (11745062_a_at) / Fold change /veh IRGQ (11745062_a_at) / RFU FAM174B (11720279_a_at) / Fold change /veh FAM174B (11720279_a_at) / RFU TMPRSS4 (11748680_a_at) / Fold change /veh TMPRSS4 (11748680_a_at) / RFU FAM212B (11763350_a_at) / Fold change /veh FAM212B (11763350_a_at) / RFU PLEKHG5 (11743358_a_at) / Fold change /veh PLEKHG5 (11743358_a_at) / RFU ZSCAN30 (11745921_a_at) / Fold change /veh ZSCAN30 (11745921_a_at) / RFU CMKLR1 (11741424_a_at) / Fold change /veh CMKLR1 (11741424_a_at) / RFU LOC101060620 /// MAPK8IP1 (11723275_at) / Fold change /veh LOC101060620 /// MAPK8IP1 (11723275_at) / RFU SPTSSB (11747773_x_at) / Fold change /veh SPTSSB (11747773_x_at) / RFU PRSS12 (11739890_at) / Fold change /veh PRSS12 (11739890_at) / RFU BIN1 (11741810_x_at) / Fold change /veh BIN1 (11741810_x_at) / RFU WNT11 (11732464_a_at) / Fold change /veh WNT11 (11732464_a_at) / RFU C10orf10 (11716521_a_at) / Fold change /veh C10orf10 (11716521_a_at) / RFU C5orf56 (11738089_at) / Fold change /veh C5orf56 (11738089_at) / RFU CYB561 (11721691_x_at) / Fold change /veh CYB561 (11721691_x_at) / RFU ANKRD19P (11752326_a_at) / Fold change /veh ANKRD19P (11752326_a_at) / RFU OR2T12 /// OR2T33 /// OR2T8 (11738714_s_at) / Fold change /veh OR2T12 /// OR2T33 /// OR2T8 (11738714_s_at) / RFU VCAN (11748164_a_at) / Fold change /veh VCAN (11748164_a_at) / RFU JSRP1 (11732532_at) / Fold change /veh JSRP1 (11732532_at) / RFU KRTAP10-11 (11738290_x_at) / Fold change /veh KRTAP10-11 (11738290_x_at) / RFU MYO3A (11730013_a_at) / Fold change /veh MYO3A (11730013_a_at) / RFU EBF3 (11725865_a_at) / Fold change /veh EBF3 (11725865_a_at) / RFU CAMK2N1 (11719241_x_at) / Fold change /veh CAMK2N1 (11719241_x_at) / RFU C5orf56 (11738088_a_at) / Fold change /veh C5orf56 (11738088_a_at) / RFU OLFML3 (11715873_a_at) / Fold change /veh OLFML3 (11715873_a_at) / RFU LOC100653217 /// NTM (11731650_a_at) / Fold change /veh LOC100653217 /// NTM (11731650_a_at) / RFU MAPK11 (11762145_a_at) / Fold change /veh MAPK11 (11762145_a_at) / RFU FIZ1 (11724087_x_at) / Fold change /veh FIZ1 (11724087_x_at) / RFU OASL (11726364_x_at) / Fold change /veh OASL (11726364_x_at) / RFU SOX15 (11748057_x_at) / Fold change /veh SOX15 (11748057_x_at) / RFU CD79A (11719716_a_at) / Fold change /veh CD79A (11719716_a_at) / RFU HIST1H1D (11736915_at) / Fold change /veh HIST1H1D (11736915_at) / RFU CASKIN2 (11723855_a_at) / Fold change /veh CASKIN2 (11723855_a_at) / RFU LOC730098 (11760151_x_at) / Fold change /veh LOC730098 (11760151_x_at) / RFU OR4N2 (11742367_at) / Fold change /veh OR4N2 (11742367_at) / RFU PRRT2 (11749266_a_at) / Fold change /veh PRRT2 (11749266_a_at) / RFU SNX32 (11753110_a_at) / Fold change /veh SNX32 (11753110_a_at) / RFU CDHR5 (11726645_a_at) / Fold change /veh CDHR5 (11726645_a_at) / RFU RCAN1 (11760418_a_at) / Fold change /veh RCAN1 (11760418_a_at) / RFU FAM167A (11723789_a_at) / Fold change /veh FAM167A (11723789_a_at) / RFU FAM26E (11764081_at) / Fold change /veh FAM26E (11764081_at) / RFU ISYNA1 (11749810_s_at) / Fold change /veh ISYNA1 (11749810_s_at) / RFU ACY1 (11761880_at) / Fold change /veh ACY1 (11761880_at) / RFU 11764098_at / Fold change /veh 11764098_at / RFU SAMD14 (11745864_x_at) / Fold change /veh SAMD14 (11745864_x_at) / RFU NPB (11741838_a_at) / Fold change /veh NPB (11741838_a_at) / RFU TMPRSS6 (11731388_a_at) / Fold change /veh TMPRSS6 (11731388_a_at) / RFU KRTAP10-2 (11738614_at) / Fold change /veh KRTAP10-2 (11738614_at) / RFU ARHGAP8 /// PRR5-ARHGAP8 (11727945_x_at) / Fold change /veh ARHGAP8 /// PRR5-ARHGAP8 (11727945_x_at) / RFU KRTAP5-7 /// NADSYN1 (11734609_at) / Fold change /veh KRTAP5-7 /// NADSYN1 (11734609_at) / RFU RASL12 (11751679_a_at) / Fold change /veh RASL12 (11751679_a_at) / RFU CDKN2B (11736163_a_at) / Fold change /veh CDKN2B (11736163_a_at) / RFU PRF1 (11729649_at) / Fold change /veh PRF1 (11729649_at) / RFU, ZNF638 /// ZNF638-IT1 / Fold change vs veh, ZNF638 /// ZNF638-IT1 / RFU, PANK3 / Fold change vs veh, PANK3 / RFU, SH3YL1 / Fold change vs veh, SH3YL1 / RFU, ZEB2 / Fold change vs veh, ZEB2 / RFU, NRIP1 / Fold change vs veh, NRIP1 / RFU, PTTG1IP / Fold change vs veh, PTTG1IP / RFU, CAPN2 / Fold change vs veh, CAPN2 / RFU, MED14 / Fold change vs veh, MED14 / RFU, SNORA58 / Fold change vs veh, SNORA58 / RFU, C1orf63 / Fold change vs veh, C1orf63 / RFU, LRRFIP1 / Fold change vs veh, LRRFIP1 / RFU, NDUFAF7 / Fold change vs veh, NDUFAF7 / RFU, SLC12A2 / Fold change vs veh, SLC12A2 / RFU, IBTK / Fold change vs veh, IBTK / RFU, ESF1 / Fold change vs veh, ESF1 / Fold change vs veh, TMEM50B / RFU, TAOK1 / Fold change vs veh, TAOK1 / RFU, ACBD3 / Fold change vs veh, ACBD3 / RFU, TMA16 / Fold change vs veh, TMA16 / RFU, RWDD3 / Fold change vs veh, RWDD3 / RFU, BCAT1 / Fold change vs veh, BCAT1 / RFU, EDEM3 / Fold change vs veh, EDEM3 / RFU, TMEM33 / Fold change vs veh, TMEM33 / RFU, WDR75 / Fold change vs veh, WDR75 / RFU, AHCTF1 / Fold change vs veh, AHCTF1 / RFU, TFRC / Fold change vs veh, TFRC / RFU, ZDHHC17 / Fold change vs veh, ZDHHC17 / RFU, NOM1 / Fold change vs veh, NOM1 / RFU, ARL8B / Fold change vs veh, ARL8B / RFU, ZBTB11 / Fold change vs veh, ZBTB11 / RFU, TAMM41 / Fold change vs veh, TAMM41 / RFU, KIAA1704 /// LOC100996395 / Fold change vs veh, KIAA1704 /// LOC100996395 / RFU, ING1 / Fold change vs veh, ING1 / RFU, TRMT61B / Fold change vs veh, TRMT61B / RFU, FUBP3 / Fold change vs veh, FUBP3 / RFU, TP53 / Fold change vs veh, TP53 / RFU, TNKS2 / Fold change vs veh, TNKS2 / RFU, ZFP14 / Fold change vs veh, ZFP14 / RFU, ACTR2 / Fold change vs veh, ACTR2 / RFU, PPP3R1 / Fold change vs veh, PPP3R1 / RFU, PIK3R1 / Fold change vs veh, PIK3R1 / RFU, HNRNPA1 / Fold change vs veh, HNRNPA1 / RFU, RNF170 / Fold change vs veh, RNF170 / RFU, ZNF28 / Fold change vs veh, ZNF28 / RFU, RNGTT / Fold change vs veh, RNGTT / RFU, OGT / Fold change vs veh, OGT / RFU, BRD1 / Fold change vs veh, BRD1 / RFU, MARS / Fold change vs veh, MARS / RFU, ZNF655 / Fold change vs veh, ZNF655 / RFU, FAHD1 / Fold change vs veh, FAHD1 / RFU, BDP1 / Fold change vs veh, BDP1 / RFU, LRRCC1 / Fold change vs veh, LRRCC1 / RFU, ARID1A / Fold change vs veh, ARID1A / RFU, ZNF146 / Fold change vs veh, ZNF146 / RFU, ZNF330 / Fold change vs veh, ZNF330 / RFU, GPN3 / Fold change vs veh, GPN3 / RFU, C9orf123 / Fold change vs veh, C9orf123 / RFU, N4BP2L2 / Fold change vs veh, N4BP2L2 / RFU, ARFIP1 / Fold change vs veh, ARFIP1 / RFU, FAM179B / Fold change vs veh, FAM179B / RFU, BCL10 / Fold change vs veh, BCL10 / RFU, UHRF1BP1L / Fold change vs veh, UHRF1BP1L / RFU, BET1 / Fold change vs veh, BET1 / RFU, CNOT2 / Fold change vs veh, CNOT2 / RFU, ZNF268 / Fold change vs veh, ZNF268 / Fold change vs veh, ZNF507 / RFU, DGCR2 / Fold change vs veh, DGCR2 / RFU, WDSUB1 / Fold change vs veh, WDSUB1 / Fold change vs veh, HSP90B1 /// MIR3652 / RFU, ADSS / Fold change vs veh, ADSS / RFU, GK / Fold change vs veh, GK / RFU, ZNF148 / Fold change vs veh, ZNF148 / RFU, TAF9 / Fold change vs veh, TAF9 / RFU, SLC1A5 / Fold change vs veh, SLC1A5 / RFU, SLMO2 / Fold change vs veh, SLMO2 / RFU, ABCC4 / Fold change vs veh, ABCC4 / RFU, LOC101060439 /// RAP1B / Fold change vs veh, LOC101060439 /// RAP1B / RFU, RFX7 / Fold change vs veh, RFX7 / RFU, GTPBP10 / Fold change vs veh, GTPBP10 / RFU, CNEP1R1 / Fold change vs veh, CNEP1R1 / RFU, BIVM-ERCC5 /// ERCC5 / Fold change vs veh, BIVM-ERCC5 /// ERCC5 / RFU, ILF3 / Fold change vs veh, ILF3 / RFU 11762660_at / Fold change /veh 11762660_at / RFU VCAN (11757783_s_at) / Fold change /veh VCAN (11757783_s_at) / RFU DDX43 (11728927_at) / Fold change /veh DDX43 (11728927_at) / RFU KRT8 (11758188_x_at) / Fold change /veh KRT8 (11758188_x_at) / RFU NKD1 (11759106_at) / Fold change /veh NKD1 (11759106_at) / RFU SRD5A1 (11742802_a_at) / Fold change /veh SRD5A1 (11742802_a_at) / RFU TPSAB1 /// TPSB2 (11721975_s_at) / Fold change /veh TPSAB1 /// TPSB2 (11721975_s_at) / RFU GSTM3 (11746129_a_at) / Fold change /veh GSTM3 (11746129_a_at) / RFU IL23R (11737362_x_at) / Fold change /veh IL23R (11737362_x_at) / RFU TMEM51 (11727254_a_at) / Fold change /veh TMEM51 (11727254_a_at) / RFU PIWIL2 (11732686_x_at) / Fold change /veh PIWIL2 (11732686_x_at) / RFU ORM1 (11744905_x_at) / Fold change /veh ORM1 (11744905_x_at) / RFU CCDC152 (11743942_at) / Fold change /veh CCDC152 (11743942_at) / RFU ECM1 (11717891_a_at) / Fold change /veh ECM1 (11717891_a_at) / RFU IL23R (11748794_a_at) / Fold change /veh IL23R (11748794_a_at) / RFU TNFAIP8L3 (11732012_x_at) / Fold change /veh TNFAIP8L3 (11732012_x_at) / RFU MBOAT4 (11741988_at) / Fold change /veh MBOAT4 (11741988_at) / RFU 11764193_at / Fold change /veh 11764193_at / RFU TMEM53 (11763286_at) / Fold change /veh TMEM53 (11763286_at) / RFU MAGEB2 (11727129_at) / Fold change /veh MAGEB2 (11727129_at) / RFU TMEM200A (11744735_a_at) / Fold change /veh TMEM200A (11744735_a_at) / RFU CCDC152 (11751479_a_at) / Fold change /veh CCDC152 (11751479_a_at) / RFU FAM211A (11726209_a_at) / Fold change /veh FAM211A (11726209_a_at) / RFU RGS16 (11746705_a_at) / Fold change /veh RGS16 (11746705_a_at) / RFU VCAN (11755009_s_at) / Fold change /veh VCAN (11755009_s_at) / RFU RHOB (11743442_s_at) / Fold change /veh RHOB (11743442_s_at) / RFU RGS16 (11720943_a_at) / Fold change /veh RGS16 (11720943_a_at) / RFU RGS16 (11720944_at) / Fold change /veh RGS16 (11720944_at) / RFU, VPS4B / Fold change vs veh, VPS4B / RFU, CREB1 / Fold change vs veh, CREB1 / RFU, DNAJC13 / Fold change vs veh, DNAJC13 / RFU, GNAQ / Fold change vs veh, GNAQ / RFU, CDK5R1 / Fold change vs veh, CDK5R1 / RFU, ZRANB3 / Fold change vs veh, ZRANB3 / RFU, CUL4A / Fold change vs veh, CUL4A / RFU, CCNY / Fold change vs veh, CCNY / RFU, UFL1 / Fold change vs veh, UFL1 / RFU, COG3 / Fold change vs veh, COG3 / RFU, DIAPH2 / Fold change vs veh, DIAPH2 / RFU, SKA2 / Fold change vs veh, SKA2 / RFU, AFF3 / Fold change vs veh, AFF3 / RFU, LMF1 / Fold change vs veh, LMF1 / RFU, IPO11 / Fold change vs veh, IPO11 / RFU, DFFB / Fold change vs veh, DFFB / RFU, FOXP1 / Fold change vs veh, FOXP1 / RFU, CARD8 / Fold change vs veh, CARD8 / RFU, STRN3 / Fold change vs veh, STRN3 / RFU, ADK / Fold change vs veh, ADK / RFU, RASSF2 / Fold change vs veh, RASSF2 / RFU, WIPF1 / Fold change vs veh, WIPF1 / RFU, LARP1B / Fold change vs veh, LARP1B / RFU, RASA1 / Fold change vs veh, RASA1 / RFU, RB1 / Fold change vs veh, RB1 / RFU, PPFIA1 / Fold change vs veh, PPFIA1 / RFU, MAT2A / Fold change vs veh, MAT2A / RFU, CCT5 / Fold change vs veh, CCT5 / RFU, WDR92 / Fold change vs veh, WDR92 / RFU, CUX1 / Fold change vs veh, CUX1 / RFU, TTC7A / Fold change vs veh, TTC7A / RFU, TMEM135 / Fold change vs veh, TMEM135 / RFU, DEPTOR / Fold change vs veh, DEPTOR / RFU, CPM / Fold change vs veh, CPM / RFU, DNAJB6 / Fold change vs veh, DNAJB6 / RFU, CACNA2D3 / Fold change vs veh, CACNA2D3 / RFU, DTX4 / Fold change vs veh, DTX4 / RFU, TFCP2 / Fold change vs veh, TFCP2 / RFU, GMCL1 /// GMCL1P1 / Fold change vs veh, GMCL1 /// GMCL1P1 / RFU, AEBP2 / Fold change vs veh, AEBP2 / RFU, SNHG1 /// SNORD22 /// SNORD25 /// SNORD26 /// SNORD27 /// SNORD28 /// SNORD29 /// SNORD31 / Fold change vs veh, SNHG1 /// SNORD22 /// SNORD25 /// SNORD26 /// SNORD27 /// SNORD28 /// SNORD29 /// SNORD31 / Fold change (Aza/veh), C12orf56 (ProbeSet 11735607_a_at) / Fold change (ACY-1035/veh), C12orf56 (ProbeSet 11735607_a_at) / Fold change (Aza/veh), FGFR1OP (ProbeSet 11751329_s_at) / Fold change (ACY-1035/veh), FGFR1OP (ProbeSet 11751329_s_at) / Fold change (Aza/veh), VPS36 (ProbeSet 11739960_a_at) / Fold change (ACY-1035/veh), VPS36 (ProbeSet 11739960_a_at) / RFU SYPL1 (11715823_x_at) / Fold change /veh SYPL1 (11715823_x_at) / RFU IGFBP7 (11715501_s_at) / Fold change /veh IGFBP7 (11715501_s_at) / RFU REEP3 (11722064_at) / Fold change /veh REEP3 (11722064_at) / RFU IGLL1 (11728026_x_at) / Fold change /veh IGLL1 (11728026_x_at): dose or concentration left out as unconfirmed. As to conditions: MV-4-11 cells, 48 hours.

Molecules are shown by their SMILES.

Turning to `Nc1ncn([C@@H]2O[C@H](CO)[C@@H](O)[C@H]2O)c(=O)n1` [azacitidine], the “Fold change /veh BIN1 (11741810_x_at)” value came to 1.02.
